{
  "source": "ChEMBL document CHEMBL3046689",
  "about": "“Volatile aldehydes are promising broad-spectrum postharvest insecticides” (J Agric Food Chem, 2000)",
  "key": {"Myzus persicae [1]": {"tested_on": "Myzus persicae", "experiment": "Insecticidal activity against Myzus persicae (green peach aphid) applied through two-tier reduced pressure fumigation at 30 mmHg for 0.5 hr and then 760 mmHg for 1.5 hr at 23 +/- 1 degC", "type": "functional"}, "Lactuca sativa [2]": {"tested_on": "Lactuca sativa", "experiment": "Phytotoxicity in naked Lactuca sativa (lettuce) assessed as change in visual quality after compound application through two-tier reduced pressure fumigation at 30 mmHg for 0.5 hr and then 760 mmHg for 1.5 hr at 23 +/- 1 degC after 2 hr", "type": "organism-based", "conditions": "in vivo"}, "Myzus persicae [3]": {"tested_on": "Myzus persicae", "experiment": "Insecticidal activity against Myzus persicae (green peach aphid) placed under third leaf of naked Iceburg lettuce heads and after compound application for 2 hr through two-tier reduced pressure fumigation at 30 mmHg for 0.5 hr and then 760 mmHg for 1.5 hr at 23 +/- 1 degC measured after 24 hr", "type": "functional"}, "Persea americana [4]": {"tested_on": "Persea americana", "experiment": "Phytotoxicity in Persea americana (avocado) assessed as induction of visual damage after compound application for 1 hr through two-tier reduced pressure fumigation at 30 mmHg for 0.5 hr and then 760 mmHg for 1.5 hr at 23 +/- 1 degC", "type": "organism-based", "conditions": "in vivo"}, "[5]": {"tested_on": "Brassica oleracea var. capitata", "experiment": "Phytotoxicity in Brassica oleracea var. capitata (cabbage) assessed as induction of visual damage after compound application for 1 hr through two-tier reduced pressure fumigation at 30 mmHg for 0.5 hr and then 760 mmHg for 1.5 hr at 23 +/- 1 degC", "type": "organism-based", "conditions": "in vivo"}, "Lactuca sativa [6]": {"tested_on": "Lactuca sativa", "experiment": "Phytotoxicity in wrapped Lactuca sativa (lettuce) assessed as induction of visual damage after compound application for 1 hr through two-tier reduced pressure fumigation at 30 mmHg for 0.5 hr and then 760 mmHg for 1.5 hr at 23 +/- 1 degC", "type": "organism-based", "conditions": "in vivo"}, "[7]": {"tested_on": "Brassica oleracea var. italica", "experiment": "Phytotoxicity in Brassica oleracea var. italica assessed as induction of visual damage after compound application for 1 hr through two-tier reduced pressure fumigation at 30 mmHg for 0.5 hr and then 760 mmHg for 1.5 hr at 23 +/- 1 degC", "type": "organism-based", "conditions": "in vivo"}, "Phaseolus vulgaris [8]": {"tested_on": "Phaseolus vulgaris", "experiment": "PhytoToxicity in Phaseolus vulgaris (beans) assessed as induction of olfactory damage after compound application for 1 hr through two-tier reduced pressure fumigation at 30 mmHg for 0.5 hr and then 760 mmHg for 1.5 hr at 23 +/- 1 degC", "type": "organism-based", "conditions": "in vivo"}, "Oryza sativa [9]": {"tested_on": "Oryza sativa", "experiment": "Phytotoxicity in Oryza sativa (rice) assessed as induction of olfactory damage after compound application for 1 hr through two-tier reduced pressure fumigation at 30 mmHg for 0.5 hr and then 760 mmHg for 1.5 hr at 23 +/- 1 degC", "type": "organism-based", "conditions": "in vivo"}, "Vitis vinifera [10]": {"tested_on": "Vitis vinifera", "experiment": "(§1) Phytotoxicity in Vitis vinifera assessed as induction of olfactory damage after compound application for 1 hr through two-tier reduced pressure fumigation at 30 mmHg for 0.5 hr and then 760 mmHg for 1.5 hr at 23 +/- 1 degC", "type": "organism-based", "conditions": "in vivo"}, "Vitis vinifera [11]": {"tested_on": "Vitis vinifera", "experiment": "as §1", "type": "organism-based", "conditions": "in vivo", "remark": "listed apart in the source"}, "Malus domestica [12]": {"tested_on": "Malus domestica", "experiment": "Phytotoxicity in Malus x domestica (apple) assessed as induction of olfactory damage after compound application for 1 hr through two-tier reduced pressure fumigation at 30 mmHg for 0.5 hr and then 760 mmHg for 1.5 hr at 23 +/- 1 degC", "type": "organism-based", "conditions": "in vivo"}, "Persea americana [13]": {"tested_on": "Persea americana", "experiment": "Phytotoxicity in Persea americana (avocado) assessed as induction of olfactory damage after compound application for 1 hr through two-tier reduced pressure fumigation at 30 mmHg for 0.5 hr and then 760 mmHg for 1.5 hr at 23 +/- 1 degC", "type": "organism-based", "conditions": "in vivo"}, "Tetranychus urticae": {"tested_on": "Tetranychus urticae", "experiment": "Insecticidal activity against Tetranychus urticae (two-spotted spider mite)", "type": "functional, organism-based"}, "Brevicoryne brassicae": {"tested_on": "Brevicoryne brassicae", "experiment": "Insecticidal activity against Brevicoryne brassicae (cabbage aphids)", "type": "functional, organism-based"}, "[14]": {"tested_on": "Frankliniella occidentalis", "experiment": "Insecticidal activity against Frankliniella occidentalis (western flower thrips)", "type": "functional, organism-based"}, "Bemisia": {"tested_on": "Bemisia", "experiment": "Insecticidal activity against Bemisia sp.", "type": "functional, organism-based"}, "Pseudococcus affinis": {"tested_on": "Pseudococcus affinis", "experiment": "Insecticidal activity against Pseudococcus affinis", "type": "functional, organism-based"}, "Pseudococcus viburni": {"tested_on": "Pseudococcus viburni", "experiment": "Insecticidal activity against Pseudococcus viburni", "type": "functional, organism-based"}, "Phaseolus vulgaris [15]": {"tested_on": "Phaseolus vulgaris", "experiment": "PhytoToxicity in Phaseolus vulgaris (beans) assessed as induction of visual damage after compound application for 1 hr through two-tier reduced pressure fumigation at 30 mmHg for 0.5 hr and then 760 mmHg for 1.5 hr at 23 +/- 1 degC", "type": "organism-based", "conditions": "in vivo, other"}, "Oryza sativa [16]": {"tested_on": "Oryza sativa", "experiment": "Phytotoxicity in Oryza sativa (rice) assessed as induction of visual damage after compound application for 1 hr through two-tier reduced pressure fumigation at 30 mmHg for 0.5 hr and then 760 mmHg for 1.5 hr at 23 +/- 1 degC", "type": "organism-based", "conditions": "in vivo"}, "Vitis vinifera [17]": {"tested_on": "Vitis vinifera", "experiment": "(§2) Phytotoxicity in Vitis vinifera assessed as induction of visual damage after compound application for 1 hr through two-tier reduced pressure fumigation at 30 mmHg for 0.5 hr and then 760 mmHg for 1.5 hr at 23 +/- 1 degC", "type": "organism-based", "conditions": "in vivo"}, "Vitis vinifera [18]": {"tested_on": "Vitis vinifera", "experiment": "as §2", "type": "organism-based", "conditions": "in vivo", "remark": "listed apart in the source"}, "Lactuca sativa [19]": {"tested_on": "Lactuca sativa", "experiment": "Phytotoxicity in naked Lactuca sativa (lettuce) assessed as residual aldehyde odor after compound application through two-tier reduced pressure fumigation at 30 mmHg for 0.5 hr and then 760 mmHg for 1.5 hr at 23 +/- 1 degC after 2 hr", "type": "organism-based", "conditions": "in vivo"}, "Malus domestica [20]": {"tested_on": "Malus domestica", "experiment": "Phytotoxicity in Malus x domestica (apple) assessed as induction of visual damage after compound application for 1 hr through two-tier reduced pressure fumigation at 30 mmHg for 0.5 hr and then 760 mmHg for 1.5 hr at 23 +/- 1 degC", "type": "organism-based", "conditions": "in vivo"}, "Citrus limon": {"tested_on": "Citrus limon", "experiment": "Phytotoxicity in Citrus limon (lemon) assessed as induction of visual damage after compound application for 1 hr through two-tier reduced pressure fumigation at 30 mmHg for 0.5 hr and then 760 mmHg for 1.5 hr at 23 +/- 1 degC", "type": "organism-based", "conditions": "citrus x limon, in vivo"}, "Citrus sinensis [21]": {"tested_on": "Citrus sinensis", "experiment": "Phytotoxicity in Citrus sinensis (orange) assessed as induction of visual damage after compound application for 1 hr through two-tier reduced pressure fumigation at 30 mmHg for 0.5 hr and then 760 mmHg for 1.5 hr at 23 +/- 1 degC", "type": "organism-based", "conditions": "in vivo"}, "Citrus sinensis [22]": {"tested_on": "Citrus sinensis", "experiment": "Phytotoxicity in Citrus sinensis (orange) assessed as induction of olfactory damage after compound application for 1 hr through two-tier reduced pressure fumigation at 30 mmHg for 0.5 hr and then 760 mmHg for 1.5 hr at 23 +/- 1 degC", "type": "organism-based", "conditions": "in vivo"}, "[23]": {"tested_on": "Brassica oleracea var. capitata", "experiment": "Phytotoxicity in Brassica oleracea var. capitata (cabbage) assessed as induction of olfactory damage after compound application for 1 hr through two-tier reduced pressure fumigation at 30 mmHg for 0.5 hr and then 760 mmHg for 1.5 hr at 23 +/- 1 degC", "type": "organism-based", "conditions": "in vivo"}, "Lactuca sativa [24]": {"tested_on": "Lactuca sativa", "experiment": "Phytotoxicity in naked Lactuca sativa (lettuce) assessed as change in visual quality after compound application for 1 hr through two-tier reduced pressure fumigation at 30 mmHg for 0.5 hr and then 760 mmHg for 1.5 hr at 23 +/- 1 degC", "type": "organism-based", "conditions": "in vivo"}, "Lactuca sativa [25]": {"tested_on": "Lactuca sativa", "experiment": "Phytotoxicity in naked Lactuca sativa (lettuce) after compound application for 1 hr through two-tier reduced pressure fumigation at 30 mmHg for 0.5 hr and then 760 mmHg for 1.5 hr at 23 +/- 1 degC", "type": "organism-based", "conditions": "in vivo"}, "Myzus persicae [26]": {"tested_on": "Myzus persicae", "experiment": "Insecticidal activity against Myzus persicae (green peach aphid) infested wrapped lettuce applied for 1 hr through two-tier reduced pressure fumigation at 30 mmHg for 0.5 hr and then 760 mmHg for 1.5 hr at 23 +/- 1 degC measured 24 hr", "type": "functional, organism-based"}},
  "note": "The source made the active and inactive calls. The rule behind the calls is not given here.",
  "data": [
    {"smiles": "CCC=O", "note": "[PROPIONALDEHYDE]", "values": [
      {"measurement": "CTP", "setting": "Myzus persicae [1]", "result": 4.2, "unit": "mg/L.hr"},
      {"measurement": "Activity", "setting": "Lactuca sativa [2]", "result": "Toxic"},
      {"measurement": "CTP", "setting": "Myzus persicae [3]", "result": 304, "unit": "mg/L.hr"},
      {"measurement": "LD90", "setting": "Myzus persicae [3]", "result": 124.5, "unit": "mg/L"},
      {"measurement": "Activity", "setting": "Persea americana [4]", "result": "Non-toxic"},
      {"measurement": "Activity", "setting": "[5]", "result": "Non-toxic"},
      {"measurement": "Activity", "setting": "Lactuca sativa [6]", "result": "Non-toxic"},
      {"measurement": "Activity", "setting": "[7]", "result": "Non-toxic"},
      {"measurement": "Activity", "setting": "Phaseolus vulgaris [8]", "result": "Non-toxic"},
      {"measurement": "Activity", "setting": "Oryza sativa [9]", "result": "Non-toxic"},
      {"measurement": "Activity", "setting": "Vitis vinifera [10]", "result": "Non-toxic"},
      {"measurement": "Activity", "setting": "Vitis vinifera [11]", "result": "Non-toxic"},
      {"measurement": "Activity", "setting": "Malus domestica [12]", "result": "Non-toxic"},
      {"measurement": "Activity", "setting": "Persea americana [13]", "result": "Non-toxic"},
      {"measurement": "Activity", "setting": "Tetranychus urticae", "result": "inactive"},
      {"measurement": "Activity", "setting": "Brevicoryne brassicae", "result": "inactive"},
      {"measurement": "Activity", "setting": "[14]", "result": "Active"},
      {"measurement": "Activity", "setting": "Bemisia", "result": "Active"},
      {"measurement": "Activity", "setting": "Pseudococcus affinis", "result": "Active"},
      {"measurement": "Activity", "setting": "Pseudococcus viburni", "result": "Active"},
      {"measurement": "Activity", "setting": "Phaseolus vulgaris [15]", "result": "Non-toxic"},
      {"measurement": "Activity", "setting": "Oryza sativa [16]", "result": "Non-toxic"},
      {"measurement": "Activity", "setting": "Vitis vinifera [17]", "result": "Non-toxic"},
      {"measurement": "Activity", "setting": "Vitis vinifera [18]", "result": "Non-toxic"},
      {"measurement": "Activity", "setting": "Lactuca sativa [19]", "result": "Toxic"},
      {"measurement": "Activity", "setting": "Malus domestica [20]", "result": "Non-toxic"},
      {"measurement": "Activity", "setting": "Citrus limon", "result": "Non-toxic"},
      {"measurement": "Activity", "setting": "Citrus sinensis [21]", "result": "Non-toxic"},
      {"measurement": "Activity", "setting": "Citrus sinensis [22]", "result": "Non-toxic"},
      {"measurement": "Activity", "setting": "[23]", "result": "Toxic"},
      {"measurement": "Activity", "setting": "Lactuca sativa [24]", "result": "Toxic"},
      {"measurement": "Activity", "setting": "Lactuca sativa [25]", "result": "Toxic"},
      {"measurement": "Activity", "setting": "Myzus persicae [26]", "result": "Active"}
    ]}
  ]
}
